Data: US7316989B2 (priority 2001, dated 2008)
Like-named read-outs stand apart in the source and are kept apart here.

Key:
[1] = tested on: rice blast fungus (Magnaporthe grisea, race: 007); type: in vivo
[2] = tested on: Brown spot fungus (Cochliobolus miyabeanus); assay: Rice Brown spot control test; type: in vivo; details: same treatment as Example 3 (10 ppm in terms of cerebroside B), counted two days after spray inoculation
rice blast (leaf blast) = type: in vivo, Magnaporthe grisea; details: rice (Koshihikari) field, spray 120 L/10 are on 44th and 51st days after transplantation; E and F 20 ppm in terms of cerebroside B, F and G with Mylinow spreader, G 500 ppm fthalide; leaf blast one month after initial application
[3] = tested on: lettuce root rot fungus (Fusarium oxysporum f. sp. lactucae race SB1-1); assay: Lettuce root rot control test; type: in vivo; details: submersion treatment, 20 ppm cerebroside B solution (H)
[4] = tested on: tomato verticullium wilt fungus (Verticillium dahliae); assay: Tomato verticillium wilt control test; type: in vivo; details: submersion 12 hr, 20 ppm in terms of cerebroside B, 21st day
[5] = tested on: sweet potato dead arm fungus (Fusarium oxysporum); assay: Sweet potato stem rot control test; details: sweet potato (Benikomachi) roots submerged 30 min, 20 ppm in terms of cerebroside B; disease development of roots 26 days after transplantation
Method: The root parts of seedling sweet potatoes (variety: Benikomachi) infected with sweet potato dead arm fungus (Fusarium oxysporum) were submerged in each sample solution for 30 min before planting in a field. Individual plots were treated by the following sample liquids. Experimental plot (E) was treated with a liquid (concentration: 20 ppm in terms of cerebroside B) prepared by diluting ethanol extract concentrate A prepared in Example 1 by 150 times. Comparison plot (H) was treated with a liquid having a cerebroside B concentration of 20 ppm. The number of plants per plot was 20, and one plot consisted of four blocks which were provided at intervals of 60 cm. In this state, the plants were transplanted in the field.
The percentage disease development of roots was investigated 26 days after the transplantation, and the protective value was calculated from the average percentage disease development of roots.

**Q.** Which results are given for CCCCCCCCCCCCCC[C@@H](O)C(=O)N[C@@H](CO[C@@H]1O[C@H](CO)[C@@H](O)[C@H](O)[C@H]1O)[C@H](O)/C=C/CC/C=C(\C)CCCCCCCCC [cerebroside B, (4E,8E)-N-D-2′-hydroxypalmitoyl-1-O-β-D-glucopyranosyl-9-methyl-4,8-sphingadienine]?
**A.** Protective value ([1]; Example 4, 10 ppm in terms of cerebroside B, 2 ml per pot to foliage, plot B with 0.1% Tween 20 as spreader): 87.6; Number of lesions (average number of lesions per leaf) ([1]; Example 4, 10 ppm in terms of cerebroside B, 2 ml per pot to foliage, plot B with 0.1% Tween 20 as spreader, control plot 18.6): 2.3; Protective value ([1]; rice (Akitakomachi), foliar application 2 ml per pot, diluted to 10 ppm in terms of cerebroside B, inoculation 3 days after treatment, lesions counted 5 days after inoculation): 90; Protective value [2]: 87.3; Number of lesions (average number of lesions per leaf) ([2]; control plot 10.2): 1.3; Protective value (rice blast (leaf blast)): 93; Protective value ([3]; 28th day): 78; Raw weight ratio on ground part ([3]; control plot = 100): 231; Protective value [4]: 60; Protective value [5]: 70
